Counter-ions that a name gives are not always drawn.
Tests used:
[1] = molecular target: T1, Human vitronectin receptor (αv β3) (Homo sapiens, UniProt P05106+P06756); experiment: Vitronectin adhesion assay (solid phase receptor assay, αvβ3); format: binding; conditions: inhibition of binding of biotinylated human vitronectin (1 nM) to purified receptor; Table I; read-out: AvB3 IC50
T1 construct: Human vitronectin receptor (αv β3) was purified from human placenta; from tissue; host or cells: human placenta
T1 sequence (P06756 31-889 limits assumed): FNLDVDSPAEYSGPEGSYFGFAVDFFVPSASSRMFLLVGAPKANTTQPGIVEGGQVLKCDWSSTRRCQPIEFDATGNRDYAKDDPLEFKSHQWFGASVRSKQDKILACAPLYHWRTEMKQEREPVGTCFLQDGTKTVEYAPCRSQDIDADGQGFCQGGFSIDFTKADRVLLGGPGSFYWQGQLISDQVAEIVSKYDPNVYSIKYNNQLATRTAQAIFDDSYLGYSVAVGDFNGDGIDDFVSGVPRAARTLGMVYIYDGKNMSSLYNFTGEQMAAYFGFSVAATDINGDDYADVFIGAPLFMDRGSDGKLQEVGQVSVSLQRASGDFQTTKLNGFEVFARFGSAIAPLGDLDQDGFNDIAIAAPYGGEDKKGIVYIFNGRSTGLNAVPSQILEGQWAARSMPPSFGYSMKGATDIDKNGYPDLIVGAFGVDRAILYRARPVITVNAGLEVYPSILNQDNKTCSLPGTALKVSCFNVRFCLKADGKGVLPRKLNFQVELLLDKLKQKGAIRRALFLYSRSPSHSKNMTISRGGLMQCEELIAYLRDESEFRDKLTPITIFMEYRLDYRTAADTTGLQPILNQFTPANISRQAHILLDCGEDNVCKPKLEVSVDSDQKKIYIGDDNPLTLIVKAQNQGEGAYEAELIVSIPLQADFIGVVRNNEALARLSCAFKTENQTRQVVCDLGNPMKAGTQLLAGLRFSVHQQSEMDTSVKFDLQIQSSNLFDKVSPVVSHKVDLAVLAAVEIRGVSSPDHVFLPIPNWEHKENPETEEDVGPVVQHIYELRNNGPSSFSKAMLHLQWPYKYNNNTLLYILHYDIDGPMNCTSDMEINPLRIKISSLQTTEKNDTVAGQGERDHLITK
T1 sequence (P06756 891-1048 limits assumed): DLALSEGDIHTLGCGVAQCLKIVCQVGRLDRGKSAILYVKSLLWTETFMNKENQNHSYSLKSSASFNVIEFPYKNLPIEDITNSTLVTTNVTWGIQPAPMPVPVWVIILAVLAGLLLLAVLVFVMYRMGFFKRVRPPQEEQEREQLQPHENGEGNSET
T1 sequence (P05106 27-788): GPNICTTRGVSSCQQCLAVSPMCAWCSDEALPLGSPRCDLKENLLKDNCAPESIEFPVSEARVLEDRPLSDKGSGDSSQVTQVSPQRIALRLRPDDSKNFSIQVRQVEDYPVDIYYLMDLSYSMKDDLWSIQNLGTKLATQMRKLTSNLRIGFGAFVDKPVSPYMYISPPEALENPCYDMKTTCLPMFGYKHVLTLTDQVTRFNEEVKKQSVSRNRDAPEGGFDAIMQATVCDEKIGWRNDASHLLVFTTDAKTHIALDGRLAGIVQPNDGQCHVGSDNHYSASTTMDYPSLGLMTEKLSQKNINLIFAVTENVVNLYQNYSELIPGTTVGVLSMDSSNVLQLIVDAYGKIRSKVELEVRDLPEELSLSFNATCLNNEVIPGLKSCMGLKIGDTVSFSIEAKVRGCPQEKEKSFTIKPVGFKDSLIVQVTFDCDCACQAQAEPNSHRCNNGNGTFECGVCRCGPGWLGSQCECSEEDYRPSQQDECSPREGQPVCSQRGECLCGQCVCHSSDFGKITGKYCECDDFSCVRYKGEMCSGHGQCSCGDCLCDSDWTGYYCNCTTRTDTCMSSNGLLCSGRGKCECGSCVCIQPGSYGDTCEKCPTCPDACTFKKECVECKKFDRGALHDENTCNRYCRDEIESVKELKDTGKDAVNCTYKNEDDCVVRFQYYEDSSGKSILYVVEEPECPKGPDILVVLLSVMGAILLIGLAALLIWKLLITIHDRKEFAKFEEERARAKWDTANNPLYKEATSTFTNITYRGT
Protocol: (§1) The activity of the compounds of the present invention was tested in the following assays.
Human vitronectin receptor (αv β3) was purified from human placenta as previously described [Pytela et al., Methods in Enzymology, 144:475-489 (1987)]. Human vitronectin was purified from fresh frozen plasma as previously described [Yatohgo et al., Cell Structure and Function, 13:281-292 (1988)]. Biotinylated human vitronectin was prepared by coupling NHS-biotin from Pierce Chemical Company (Rockford, Ill.) to purified vitronectin as previously described [Charo et al., J. Biol. Chem., 266(3):1415-1421 (1991)]. Assay buffer, OPD substrate tablets, and RIA grade BSA were obtained from Sigma (St. Louis, Mo.). Anti-biotin antibody was obtained from Calbiochem (La Jolla, Calif.). Linbro microtiter plates were obtained from Flow Labs (McLean, Va.). ADP reagent was obtained from Sigma (St. Louis, Mo.).
(§2) Solid Phase Receptor Assays
This assay was essentially the same as previously reported [Niiya et al., Blood, 70:475-483 (1987)]. The purified human vitronectin receptor (αv β3) was diluted from stock solutions to […] in Tris-buffered saline containing 1.0 mM Ca^++, Mg^++, and Mn^++, pH 7.4 (TBS^+++). The diluted receptor was immediately transferred to Linbro microtiter plates at 100 μL/well (100 ng receptor/well). The plates were sealed and incubated overnight at 4° C. to allow the receptor to bind to the wells. All remaining steps were at room temperature. The assay plates were emptied and 200 μL, of 1% RIA grade BSA in TBS^+++ (TBS^+++ /BSA) were added to block exposed plastic surfaces. Following a 2 hour incubation, the assay plates were washed with TBS^+++ using a 96 well plate washer. Logarithmic serial dilution of the test compound and controls were made starting at a stock concentration of 2 mM and using 2 nM biotinylated vitronectin in TBS^+++ /BSA as the diluent. This premixing of labeled ligand with test (or control) ligand, and subsequent transfer of 50 μL aliquots to the assay plate was carried out with a CETUS Propette robot; the final concentration of the labeled ligand was 1 nM and the highest concentration of test compound was 1.0×10^-4 M. The competition occurred for two hours after which all wells were washed with a plate washer as before. Affinity purified horseradish peroxidase labeled goat anti-biotin antibody was diluted 1:3000 in TBS^+++ /BSA and 125 μL were added to each well. After 30 minutes, the plates were washed and incubated with OPD/H2 O2 substrate in 100 mM/L Citrate buffer, pH 5.0. The plate was read with a microtiter plate reader at a wavelength of 450 nm and when the maximum-binding control wells reached an absorbance of about 1.0, the final A450 were recorded for analysis. The data were analyzed using a macro written for use with the EXCEL™ spreadsheet program. The mean, standard deviation, and % CV were determined for duplicate concentrations. The mean A450 values were normalized to the mean of four maximum-binding controls (no competitor added) (B-MAX). The normalized values were subjected to a four parameter curve fit algorithm [Rodbard et al., Int.

[2] = molecular target: T2, Human fibrinogen receptor (αIIb β3) (Homo sapiens, UniProt P05106+P08514); experiment: Purified IIb/IIIa receptor assay (solid phase receptor assay); conditions: inhibition of binding of biotinylated human vitronectin (1 nM) to purified receptor; Table I
T2 construct: Human fibrinogen receptor (αIIb β3) was purified from outdated platelets; from tissue; host or cells: human outdated platelets
T2 sequence (P08514 32-887 limits assumed): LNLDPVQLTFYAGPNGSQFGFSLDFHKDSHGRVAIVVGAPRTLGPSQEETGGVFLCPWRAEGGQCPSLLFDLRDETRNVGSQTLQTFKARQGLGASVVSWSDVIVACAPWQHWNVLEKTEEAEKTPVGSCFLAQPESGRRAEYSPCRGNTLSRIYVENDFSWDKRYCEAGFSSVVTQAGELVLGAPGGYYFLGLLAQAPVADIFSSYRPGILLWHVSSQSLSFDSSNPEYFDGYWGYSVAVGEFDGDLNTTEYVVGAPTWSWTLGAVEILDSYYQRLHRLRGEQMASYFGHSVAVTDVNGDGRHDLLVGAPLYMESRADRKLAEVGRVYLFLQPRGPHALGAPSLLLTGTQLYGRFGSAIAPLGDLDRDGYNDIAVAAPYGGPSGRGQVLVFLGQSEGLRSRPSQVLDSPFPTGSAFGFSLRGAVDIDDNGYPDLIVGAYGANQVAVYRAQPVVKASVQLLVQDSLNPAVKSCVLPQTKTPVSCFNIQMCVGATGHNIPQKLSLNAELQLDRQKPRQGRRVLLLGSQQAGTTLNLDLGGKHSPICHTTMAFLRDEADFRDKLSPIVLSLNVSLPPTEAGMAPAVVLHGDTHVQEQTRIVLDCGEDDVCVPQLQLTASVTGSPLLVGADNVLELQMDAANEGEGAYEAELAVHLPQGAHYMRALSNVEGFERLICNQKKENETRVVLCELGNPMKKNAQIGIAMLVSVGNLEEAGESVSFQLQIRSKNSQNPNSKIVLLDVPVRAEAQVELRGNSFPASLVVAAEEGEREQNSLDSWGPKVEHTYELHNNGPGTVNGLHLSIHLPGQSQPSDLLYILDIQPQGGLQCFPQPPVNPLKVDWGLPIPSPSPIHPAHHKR
T2 sequence (P08514 891-1039 limits assumed): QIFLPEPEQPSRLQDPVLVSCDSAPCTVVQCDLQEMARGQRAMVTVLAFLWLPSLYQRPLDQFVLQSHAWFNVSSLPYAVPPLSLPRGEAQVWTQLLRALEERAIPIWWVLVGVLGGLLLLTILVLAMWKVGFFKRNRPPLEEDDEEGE
T2 sequence (P05106 27-788): as the sequence (P05106 27-788) above
Protocol: as §1
Human fibrinogen receptor (αIIb β3) was purified from outdated platelets. (Pytela, R., Pierschbacher, M. D., Argraves, S., Suzuki, S., and Rouslahti, E. "Arginine-Glycine-Aspartic acid adhesion receptors", Methods in Enzymology 144(1987):475-489.) Human vitronectin was purified from fresh frozen plasma as described in Yatohgo, T., Izumi, M., Kashiwagi, H., and Hayashi, M., "Novel purification of vitronectin from human plasma by heparin affinity chromatography," Cell Structure and Function 13(1988):281-292. Biotinylated human vitronectin was prepared by coupling NHS-biotin from Pierce Chemical Company (Rockford, Ill.) to purified vitronectin as previously described. (Charo, I. F., Nannizzi, L., Phillips, D. R., Hsu, M. A., Scarborough, R. M., "Inhibition of fibrinogen binding to GP IIb/IIIa by a GP IIIa peptide", J. Biol. Chem. 266(3) (1991): 1415-1421.) Assay buffer, OPD substrate tablets, and RIA grade BSA were obtained from Sigma (St. Louis, Mo.). Anti-biotin antibody was obtained from Calbiochem (La Jolla, Calif.). Linbro microtiter plates were obtained from Flow Labs (McLean, Va.). ADP reagent was obtained from Sigma (St. Louis, Mo.).
as §2
This assay is essentially the same reported in Niiya, K., Hodson, E., Bader, R., Byers-Ward, V. Koziol, J. A., Plow, E. F. and Ruggeri, Z. M., "Increased surface expression of the membrane glycoprotein IIb/IIIa complex induced by platelet activation: Relationships to the binding of fibrinogen and platelet aggregation", Blood 70 (1987):475-483. The purified human fibrinogen receptor (αIIb β3) was diluted from stock solutions to 1.0 μg/mL in Tris-buffered saline containing 1.0 mM Ca^++, Mg^++, and Mn^++, pH 7.4 (TBS^+++). The diluted receptor was immediately transferred to Linbro microtiter plates at 100 μL/well (100 ng receptor/well). The plates were sealed and incubated overnight at 4° C. to allow the receptor to bind to the wells. All remaining steps were at room temperature. The assay plates were emptied and 200 μL of 1% RIA grade BSA in TBS^+++ (TBS^+++ /BSA) were added to block exposed plastic surfaces. Following a 2 hour incubation, the assay plates were washed with TBS^+++ using a 96 well plate washer. Logarithmic serial dilution of the test compound and controls were made starting at a stock concentration of 2 mM and using 2 nM biotinylated vitronectin in TBS^+++ /BSA as the diluent. This premixing of labeled ligand with test (or control) ligand, and subsequent transfer of 50 μL aliquots to the assay plate was carried out with a CETUS Propette robot; the final concentration of the labeled ligand was 1 nM and the highest concentration of test compound was 1.0×10^-4 M. The competition occurred for two hours after which all wells were washed with a plate washer as before. Affinity purified horseradish peroxidase labeled goat anti-biotin antibody was diluted 1:3000 in TBS^+++ /BSA and 125 μL were added to each well. After 30 minutes, the plates were washed and incubated with […]/H2 O2 substrate in 100 mM/L citrate buffer, pH 5.0. The plate was read with a microtiter plate reader at a wavelength of 450 nm and when the maximum-binding control wells reached an absorbance of about 1.0, the final A450 were recorded for analysis. The data were analyzed using a macro written for use with the EXCEL™ spreadsheet program. The mean, standard deviation, and % CV were determined for duplicate concentrations. The mean A450 values were normalized to the mean of four maximum-binding controls (no competitor added) (B-MAX). The normalized values were subjected to a four parameter curve fit algorithm, [Robard et al., Int.

Row | SMILES | IC50 [1] | IC50 [2]
1 | N#Cc1cc(NC(=O)c2cccc(NC(=N)N)c2)ccc1/C=C/C(=O)O [Example 44, 3-[4-[[[3-[(aminoiminomethyl)amino]phenyl]carbonyl]amino]-2-cyanophenyl]propenoic acid, trifluoroacetate salt] | 30.2 nM | 36.2 nM
2 | NC(=O)N=C(N)Nc1cccc(C(=O)Nc2ccc(/C=C/C(=O)O)cc2)c1 [Example 52, 3-[4-[[[3-[[amino[(aminocarbonyl)imino)methyl]amino]phenyl]carbonyl]amino]phenyl]propenoic acid, trifluoroacetate salt] | 72.5 nM | 133 nM
3 | N=C(N)Nc1cc(C(=O)Nc2ccc(/C=C/C(=O)O)c(Cl)c2)cc(C(F)(F)F)c1 [Example 54, 3-[4-[[[3-[(aminoiminomethyl)amino]-5-(trifluoromethyl)phenyl]carbonyl]amino]-2-chlorophenyl]propenoic acid, trifluoroacetate salt] | 12.5 nM | 686 nM
4 | Cc1cc(/C=C/C(=O)O)cc(C)c1NC(=O)c1cccc(NC2=NCCCS2)c1 [Example 57, 3-[4-[[[3-[(5,6-dihydro-4H-1,3-thiazin-2-yl)amino]phenyl]carbonyl]amino]3,5-dimethylphenyl]propenoic acid, trifluoroacetate salt] | 25.8 nM | 12800 nM
5 | C/C(=C\C(=O)O)c1ccc(NC(=O)c2cccc(NC(=N)N)c2)cc1 [Example 59, 3-[4-[[[3-[(aminoiminomethyl)amino]phenyl]carbonyl]amino]phenyl]-2-butenoicacid, trifluoroacetate salt] | 1270 nM | 5140 nM
6 | N=C(N)Nc1cccc(C(=O)Nc2ccc(/C=C(\NC(=O)c3ccccc3)C(=O)O)cc2)c1 [Example 60, 3-[4-[[[3-[(aminoiminomethyl)amino]phenyl]carbonyl]amino]phenyl]-2-[(phenylcarbonyl)amino]propenoic acid, trifluoroacetate salt] | 67.3 nM | 440 nM
7 | O=C(O)/C=C/c1cccc(CNC(=O)c2cccc(NC(=O)NCc3ccccc3)c2)c1 [Example 64, 3-[3-[[[[3-[[[(phenylmethyl)amino]carbonyl]amino]phenyl]carbonyl]amino]methyl]phenyl]propenoic acid, trifluoroacetate salt] | 2180 nM | 16200 nM

Stronger by IC50 [1], values ahead:

Row | IC50 [1] | IC50 [2] | SMILES
8 | 7.89 nM | 232 nM | N=C(N)Nc1cc(C(=O)Nc2ccc(/C=C/C(=O)O)cc2)cc(C(F)(F)F)c1 [Example 53, 3-[4-[[[3-[(aminoiminomethyl)amino]-5-(trifluoromethyl)-phenyl]carbonyl]amino]phenyl]propenoic acid, trifluoroacetate salt]
9 | 7.6 nM | 15.9 nM | N=C(N)Nc1cccc(C(=O)Nc2ccc(/C=C/C(=O)O)c(/C=C/C(=O)O)c2)c1 [Example 42, 3-[4-[[[3-[(aminoiminomethyl)amino]phenyl]carbonyl]amino]-2-(2-carboxyethenyl)phenyl]propenoic acid, trifluoroacetate salt]
10 | 7.19 nM | 2600 nM | CCOC(=O)Nc1cc(NC(=O)c2cccc(NC3=NCCCN3)c2)ccc1/C=C/C(=O)O [Example 46, 3-[2-[(ethoxycarbonyl)amino]-4-[[[3-[(1,4,5,6-tetrahydropyrimidin-2-yl)amino]phenyl]carbonyl]amino]phenyl]propenoic acid, trifluoroacetate salt]
11 | 6.7 nM | 759 nM | CNC(=O)c1cc(NC(=O)c2cccc(NC3=NCCCN3)c2)ccc1/C=C/C(=O)O [Example 45, 3-[2-[(methylamino)carbonyl]-4-[[[3-[(1,4,5,6-tetrahydropyrimidin-2-yl)amino]phenyl]carbonyl]amino]phenyl]propenoic acid, bis(trifluoroacetate) salt]
12 | 4.03 nM | 656 nM | O=C(O)/C=C/c1ccc(NC(=O)c2cccc(NC3=NCCCS3)c2)cc1 [Example 56, 3-[4-[[[3-[(5,6-dihydro-4H-1,3-thiazin-2-yl)amino]phenyl]carbonyl]amino]phenyl]propenoic acid, trifluoroacetate salt]
13 | 3.62 nM | 432 nM | COc1cc(NC(=O)c2cc(NC(=N)N)cc(C(F)(F)F)c2)ccc1/C=C/C(=O)O [Example 55, 3-[4-[[[3-[(aminoiminomethyl)amino]-5-(trifluoromethyl)phenyl]carbonyl]amino]-2-methoxyphenyl]propenoic acid, trifluoroacetate salt]
14 | 2.18 nM | 661 nM | O=C(O)/C=C/c1ccc(NC(=O)c2cccc(NC3=NCCCN3)c2)cc1 [Example 49, 3-[4-[[[3-[(1,4,5,6-tetrahydropyrimidin-2-yl)amino]phenyl]carbonyl]amino]phenyl]propenoic acid, trifluoroacetate salt]
15 | 2.04 nM | 23300 nM | O=C(O)/C=C/c1cccc(CNC(=O)c2cccc(NC3=NCCCN3)c2)c1 [Example 62, 3-[3-[[[[3-[(1,4,5,6-tetrahydropyrimidin-2-yl)amino]phenyl]carbonyl]amino]methyl]phenyl]propenoic acid, monohydrochloride]
16 | 0.43 nM | 772 nM | COc1cc(NC(=O)c2cccc(NC3=NCCCN3)c2)ccc1/C=C/C(=O)O [Example 50, 3-[2-methoxy-4-[[[3-[(1,4,5,6-tetrahydropyrimidin-2-yl)amino]phenyl]carbonyl]amino]phenyl]propenoic acid, trifluoroacetate salt]

Source: patent US5852210A, “Cinnamic acid derivatives” (G. D. Searle & Co., priority 1997, dated 1998)
